Data: patent publication US20240050385A1, “METHODS OF TREATING LEPTOMENINGEAL METASTASIS” (MEMORIAL SLOAN-KETTERING CANCER CENTER, priority 2020, published 2024)

Experiments:
[1] = system: LCN2; experiment: LCN2 ELISA after recombinant cytokine stimulation; format: cell-based; conditions: recombinant cytokine added to artificial CSF; PC9, MDA231 or LLC LeptoM cells; ELISA at 48 h
Method: FIG. 11A-11E. Proinflammatory cytokines in human CSF. (A) LCN2 was quantified by ELISA in the CSF from patients harboring LM was treated with neutralizing antibody against IL-6 or IL-8 and added to MDA231-LeptoM cells for 12 hours. N=3 in each of two independent experiments. NS=not significant, * indicates p<0.05, ** indicates p<0.01, *** indicates p<0.001 (unpaired t test). Data represent mean±SEM. (B) Evaluation of LCN2 expression by ELISA with the treatment of pro-inflammatory cytokines IL-6, IL-8, IL-1β and TNF in PC9-Par and PC9-LeptoM cells. LCN2 expression was determined by ELISA of conditioned media collected 48 hours after recombinant cytokine stimulation. N=3 in each of two independent experiments. *indicates p<0.05 (unpaired t test). Data represent mean±SEM. (C) LCN2 expression by ELISA 48 h after treatment of MDA-Par and MDA-LeptoM cells with IL-6, IL-8, IL-1β and TNF. LCN2 expression by ELISA in conditioned media for 48 hours after recombinant cytokines stimulation. N=3 in each of two independent experiments. *indicates p<0.05 (unpaired t test). Data represent mean±SEM. (D) LCN2 expression by ELISA 48 h after treatment of LLC-Par and LLC-LeptoM cells with IL-6, IL-1β and TNF. N=3 in each of two independent experiments. * indicates p<0.05 (unpaired t test). Data represent mean±SEM. (E) Visualization of macrophage cells in first two diffusion components. First diffusion component is best matched by Hypoxia as indicated with GSEA es=0.6, fdr=0 and M1 phenotype es=−0.5, fdr=0.11, while second diffusion component is best matched by M2 phenotype es=0.7, fdr=0. MAGIC imputed gene set expression was standardized to zero mean and unit of standard deviation.
Secreted protein detection. Human LCN2 (Abcam, ab215541), Hepcidin (R&D, DHP250), Transferrin (Abcam, ab187391), Ferritin (LSBio, LS-F428-1), IL-6 (R&D, D6050), IL-8 (R&D, D8000C), IL-1β (R&D, DLB50), TNF expression (Abcam, ab181421) in CSF patient samples or cell culture supernatants were measured using ELISA kits according to manufacturer's instructions. […]

[2] = system: LeptoM cells expressing shLCN2; experiment: Tumor growth in mice injected with LeptoM cells expressing shLCN2, treated with holo-transferrin; format: in vivo, mouse; conditions: 5 mg/mL holo-transferrin intracisternal every third day, 7 doses
Excerpt: (§1) FIG. 14A-14K. Leptomeningeal metastasis requires iron transporters. (A) Total iron measured by mass spectroscopy in CSF cancer patients with and without LM. Presence of LM is indicated +/−. N=11 cancer patients without LM and n=12 cancer patients with LM. * indicates p<0.05 (unpaired t test). Data represent mean±SEM. (B) LCN2 iron binding assay in patient CSF. Non-LCN2-bound iron [NLBI] and LCN2-bound iron [LBI] was detected in the CSF from cancer patients with or without LM. N=10. **** indicates p<0.0001 (unpaired t test). Data represent mean±SEM. (C) Expression of genes associated with iron transport in parental cells and LeptoM cells by bulk RNA sequencing. N=2 in PC9 cells and n=3 in LeptoM cells. Presented as log 2 fold change in each group with cutoff <20 normalized counts. (D) Tumor growth in mice injected with PC9-LeptoM cells expressing shCtl or shLCN2. Treatment with either vehicle or 5 mg/Ml holo-transferrin (diferric [Tf]) was commenced on day 1 and continued every third day for a total of 7 doses. Left: Histogram represents in vivo BLI imaging post-inoculation at day 21. N=6-8 per group in each of two independent experiments. Right: Representative BLI images. Sh1+Veh vs sh1+Tf, p=0.2087. sh2+Veh vs sh2+Tf, p=0.0604. Data represent mean±SEM. […] Iron measured by colorimetric assay. […] Intracellular iron was determined by colorimetric assay. […]

[3] = system: PC9-LeptoM cells; experiment: Cell associated iron and viability of PC9-LeptoM cells after knockdown of SLC22A17 or LCN2; format: cell-based, human; conditions: 100 μg/mL diferric Tf added in vitro
Excerpt: as §1, with “21.” for “21. N=6-8 per group in each of two independent experiments. Right: Representative BLI images. Sh1+Veh vs sh1+Tf, p=0.2087. sh2+Veh vs sh2+Tf, p=0.0604. Data represent mean±SEM.”
Cell Viability Assay. […] The CellTiter-Glo Luminescent Cell Viability Assay (Promega G9241) was used to quantify viable cells in culture according to the manufacturer's protocols. […]

For “IL-1β: recombinant IL-1β (R&D) added to culture media”, the “expression of LCN2” value [1] was “induced expression of LCN2”.

In the case of “IL-6: recombinant IL-6 (R&D) added to culture media”, the “expression of LCN2” value [1] is reported as “induced expression of LCN2”.

In the case of “IL-8: recombinant IL-8 (R&D) added to culture media”, the “expression of LCN2” value [1] is reported as “induced expression of LCN2”.

In the case of “transferrin: iron-loaded (diferric) holo-transferrin, Invitria 777TRF029”, the “rescue of LCN2 knockdown by shRNA in vivo (tumor growth, survival)” value [2] is reported as “partially rescued”, the “cell growth after SLC22A17 or LCN2 knockdown” value [3] is reported as “rescued” and the “intracellular iron accumulation after SLC22A17 or LCN2 knockdown” value [3] is reported as “rescued”.
